Among the data in patent US11267822B2, “BET bromodomain protein degraders with cleavable linkers” (THE REGENTS OF THE UNIVERSITY OF MICHIGAN, priority 2017, dated 2022) are IC50 values, retold here.

One assay deals with MOLM13. Briefly: Cell growth inhibition, CellTiter-Glo Luminescent Cell Viability Assay, MOLM13. The class given is cell-based. The settings on record: MOLM13 cells, 4 days. As to the method:
(§1) Cell growth inhibitory activity of representative Compounds of the Disclosure was determined using the CellTiter-Glo® Luminescent Cell Viability Assay. Cells were seeded in 384-well white opaque cell culture plates at a density of 2,000 cells/well with serially diluted compounds and incubated at 37° C. in an atmosphere of 95% air and 5% CO2 for 4 days. Cell viability was determined using the CellTiter-Glo® Luminescent Cell Viability Assay Kit (Promega, Madison, Wis.) according to the manufacture's instruction. Briefly, a volume of CellTiter-Glo® Reagent equal to the volume of cell culture medium was added to each well, and then the plates were incubated at room temperature for 10-20 minutes. The luminescent signal was measured using a Tecan Infinite M1000 multimode microplate reader (Tecan, Morrisville, N.C.). The half maximal inhibitory concentration (IC50) in Table 3 was calculated using the GraphPad Prism 5 software (GraphPad Software, La Jolla, Calif.).
In general terms: Cellular ATP, detected with luciferase, serves as a proxy for viable cell number.

For another assay, the system named is MDA-MB-231. Briefly: Cell growth inhibition, CellTiter-Glo Luminescent Cell Viability Assay, MDA-MB-231. The class given is cell-based. Particulars: MDA-MB-231 cells, 4 days. As to the method: as §1

What is called IC50 is the concentration that gives 50% inhibition. A higher IC50 goes with weaker potency in that assay.

Values joined by “and” are separate entries in the source; they are usually repeats but may differ in a detail not shown here. Identical values can stand only once.

For the compound `Cc1c(C#Cc2cnn(CCCC(=O)OCCCOc3cccc4c3CN(C3CCC(=O)NC3=O)C4=O)c2)sc2c1C(c1ccc(Cl)cc1)=N[C@@H](C)c1nnc(C)n1-2` (stereo partly drawn) [Cpd. No. 5, 3-((2-(2,6-dioxopiperidin-3-yl)-1-oxoisoindolin-4-yl)oxy)propyl 4-(4-(((S)-4-(4-chlorophenyl)-3,6,9-trimethyl-6H-thieno[3,2-f][1,2,4]triazolo[4,3-a][1,4]diazepin-2-yl)ethynyl)-1H-pyrazol-1-yl)butanoate], the half-maximal inhibitory concentration (IC50) in the assay with MOLM13 (Homo sapiens, MOLM-13, 96 h) was 0.1 nM; in the assay on MDA-MB-231 (Homo sapiens, MDA-MB-231, 96 h), 0.1 nM.

For `Cc1c(C#Cc2cnn(CCCC(=O)OCCN3CCC(Nc4cccc5c4CN(C4CCC(=O)NC4=O)C5=O)CC3)c2)sc2c1C(c1ccc(Cl)cc1)=N[C@@H](C)c1nnc(C)n1-2` (stereo partly drawn) [Cpd. No. 11, 2-(4-((2-(2,6-dioxopiperidin-3-yl)-1-oxoisoindolin-4-yl)amino)piperidin-1-yl)ethyl 4-(4-(((S)-4-(4-chlorophenyl)-3,6,9-trimethyl-6H-thieno[3,2-f][1,2,4]triazolo[4,3-a][1,4]diazepin-2-yl)ethynyl)-1H-pyrazol-1-yl)butanoate], the half-maximal inhibitory concentration (IC50) in the assay on MOLM13 (Homo sapiens, MOLM-13, 96 h) turned out to be 0.06 nM; with MDA-MB-231 (Homo sapiens, MDA-MB-231, 96 h), 0.1 nM.

With `Cc1c(C#Cc2cnn(CCCC(=O)OCCOCCCN3CCC(Nc4cccc5c4CN(C4CCC(=O)NC4=O)C5=O)CC3)c2)sc2c1C(c1ccc(Cl)cc1)=N[C@@H](CC(=O)N1CCN(C)CC1)c1nnc(C)n1-2` (stereo partly drawn) [compound 2, 2-(3-(4-((2-(2,6-dioxopiperidin-3-yl)-1-oxoisoindolin-4-yl)amino)piperidin-1-yl)propoxy)ethyl 4-(4-(((S)-4-(4-chlorophenyl)-3,9-dimethyl-6-(2-(4-methylpiperazin-1-yl)-2-oxoethyl)-6H-thieno[3,2-f][1,2,4]triazolo[4,3-a][1,4]diazepin-2-yl)ethynyl)-1H-pyrazol-1-yl)butanoate], the IC50 is 7.5 nM in the assay with MOLM13 (Homo sapiens, MOLM-13, 96 h) and 19.4 nM in the assay with MDA-MB-231 (Homo sapiens, MDA-MB-231, 96 h).

Consider `Cc1c(C#Cc2cnn(CC(=O)OCC#Cc3cccc4c3CN(C3CCC(=O)NC3=O)C4=O)c2)sc2c1C(c1ccc(Cl)cc1)=N[C@@H](C)c1nnc(C)n1-2` (stereo partly drawn) [compound 3, 3-(2-(2,6-dioxopiperidin-3-yl)-1-oxoisoindolin-4-yl)prop-2-yn-1-yl 2-(4-(((S)-4-(4-chlorophenyl)-3,6,9-trimethyl-6H-thieno[3,2-f][1,2,4]triazolo[4,3-a][1,4]diazepin-2-yl)ethynyl)-1H-pyrazol-1-yl)acetate], for which the results for the half-maximal inhibitory concentration (IC50) with MOLM13 and with MDA-MB-231 were 1.8 nM and 2.1 nM, respectively.

For `Cc1c(C#Cc2cnn(CCCC(=O)OCCOCCOCCOCC#Cc3cccc4c3CN(C3CCC(=O)NC3=O)C4=O)c2)sc2c1C(c1ccc(Cl)cc1)=N[C@@H](CC(=O)N1CCN(C)CC1)c1nnc(C)n1-2` (stereo partly drawn) [compound 6, 2-(2-(2-((3-(2-(2,6-dioxopiperidin-3-yl)-1-oxoisoindolin-4-yl)prop-2-yn-1-yl)oxy)ethoxy)ethoxy)ethyl 4-(4-(((S)-4-(4-chlorophenyl)-3,9-dimethyl-6-(2-(4-methylpiperazin-1-yl)-2-oxoethyl)-6H-thieno[3,2-f][1,2,4]triazolo[4,3-a][1,4]diazepin-2-yl)ethynyl)-1H-pyrazol-1-yl)butanoate], the IC50 turned out to be 2.8 nM with MOLM13 (Homo sapiens, MOLM-13, 96 h) and 32 nM in the assay on MDA-MB-231 (Homo sapiens, MDA-MB-231, 96 h).

In the case of `Cc1c(C#Cc2cnn(CCCC(=O)OCCCOCCN3CCC(Nc4cccc5c4CN(C4CCC(=O)NC4=O)C5=O)CC3)c2)sc2c1C(c1ccc(Cl)cc1)=N[C@@H](CC(=O)N1CCN(C)CC1)c1nnc(C)n1-2` (stereo partly drawn) [compound 7, 3-(2-(4-((2-(2,6-dioxopiperidin-3-yl)-1-oxoisoindolin-4-yl)amino)piperidin-1-yl)ethoxy)propyl 4-(4-(((S)-4-(4-chlorophenyl)-3,9-dimethyl-6-(2-(4-methylpiperazin-1-yl)-2-oxoethyl)-6H-thieno[3,2-f][1,2,4]triazolo[4,3-a][1,4]diazepin-2-yl)ethynyl)-1H-pyrazol-1-yl)butanoate], the half-inhibitory concentration (IC50) with MOLM13 (Homo sapiens, MOLM-13, 96 h) amounted to 9.6 nM; in the assay on MDA-MB-231 (Homo sapiens, MDA-MB-231, 96 h), 4.5 nM.

Turning to `Cc1c(C#Cc2cnn(CCCC(=O)OCCCOCCN3CCC(Nc4cccc5c4CN(C4CCC(=O)NC4=O)C5=O)CC3)c2)sc2c1C(c1ccc(Cl)cc1)=N[C@@H](C)c1nnc(C)n1-2` (stereo partly drawn) [compound 8, 3-(2-(4-((2-(2,6-dioxopiperidin-3-yl)-1-oxoisoindolin-4-yl)amino)piperidin-1-yl)ethoxy)propyl 4-(4-(((S)-4-(4-chlorophenyl)-3,6,9-trimethyl-6H-thieno[3,2-f][1,2,4]triazolo[4,3-a][1,4]diazepin-2-yl)ethynyl)-1H-pyrazol-1-yl)butanoate], the IC50 in the assay on MOLM13 (Homo sapiens, MOLM-13, 96 h) turned out to be 1.1 nM; in the assay on MDA-MB-231 (Homo sapiens, MDA-MB-231, 96 h), 1.3 nM.

Regarding `Cc1c(C#Cc2cnn(CCCC(=O)OCCN3CCC(Nc4cccc5c4CN(C4CCC(=O)NC4=O)C5=O)CC3)c2)sc2c1C(c1ccc(Cl)cc1)=N[C@@H](CC(=O)N1CCN(C)CC1)c1nnc(C)n1-2` (stereo partly drawn) [compound 12, 2-(4-((2-(2,6-dioxopiperidin-3-yl)-1-oxoisoindolin-4-yl)amino)piperidin-1-yl)ethyl 4-(4-(((S)-4-(4-chlorophenyl)-3,9-dimethyl-6-(2-(4-methylpiperazin-1-yl)-2-oxoethyl)-6H-thieno[3,2-f][1,2,4]triazolo[4,3-a][1,4]diazepin-2-yl)ethynyl)-1H-pyrazol-1-yl)butanoate], the IC50 worked out at 0.05 nM in the assay on MOLM13 (Homo sapiens, MOLM-13, 96 h) and 0.08 nM with MDA-MB-231 (Homo sapiens, MDA-MB-231, 96 h).

Turning to `Cc1nnc2n1-c1sc(C#Cc3cnn(CCCOC(=O)CCc4cccc5c4CN(C4CCC(=O)NC4=O)C5=O)c3)c(Cc3ccccc3)c1COC2` (centres unmarked) [compound 17, 3-(4-((3-benzyl-9-methyl-4H,6H-thieno[2,3-e][1,2,4]triazolo[3,4-c][1,4]oxazepin-2-yl)ethynyl)-1H-pyrazol-1-yl)propyl 3-(2-(2,6-dioxopiperidin-3-yl)-1-oxoisoindolin-4-yl)propanoate], the IC50 was 1.8 nM in the assay with MOLM13 (Homo sapiens, MOLM-13, 96 h) and 39 nM in the assay on MDA-MB-231 (Homo sapiens, MDA-MB-231, 96 h).

As to `Cc1nnc2n1-c1sc(C#Cc3cnn(CCCC(=O)OCCOCCOCCOCCOc4cccc5c4CN(C4CCC(=O)NC4=O)C5=O)c3)c(Cc3ccccc3)c1COC2` (centres unmarked) [compound 22, 2-(2-(2-(2-((2-(2,6-dioxopiperidin-3-yl)-1-oxoisoindolin-4-yl)oxy)ethoxy)ethoxy)ethoxy)ethyl 4-(4-((3-benzyl-9-methyl-4H,6H-thieno[2,3-e][1,2,4]triazolo[3,4-c][1,4]oxazepin-2-yl)ethynyl)-1H-pyrazol-1-yl)butanoate], the IC50 in the assay on MOLM13 (Homo sapiens, MOLM-13, 96 h) came out at 5.2 nM; in the assay on MDA-MB-231 (Homo sapiens, MDA-MB-231, 96 h), 185 nM.

As to `Cc1nnc2n1-c1sc(C#Cc3cnn(CCCC(=O)OCOCCCOc4cccc5c4CN(C4CCC(=O)NC4=O)C5=O)c3)c(Cc3ccccc3)c1COC2` (centres unmarked) [compound 23, (3-((2-(2,6-dioxopiperidin-3-yl)-1-oxoisoindolin-4-yl)oxy)propoxy)methyl 4-(4-((3-benzyl-9-methyl-4H,6H-thieno[2,3-e][1,2,4]triazolo[3,4-c][1,4]oxazepin-2-yl)ethynyl)-1H-pyrazol-1-yl)butanoate], the half-inhibitory concentration (IC50) in the assay on MOLM13 (Homo sapiens, MOLM-13, 96 h) is 2.1 nM; with MDA-MB-231 (Homo sapiens, MDA-MB-231, 96 h), 77.9 nM.

Take `Cc1nnc2n1-c1sc(C#Cc3cnn(CCCC(=O)OCCCN4CCC(Nc5cccc6c5CN(C5CCC(=O)NC5=O)C6=O)CC4)c3)c(Cc3ccccc3)c1COC2` (centres unmarked) [compound 25, 3-(4-((2-(2,6-dioxopiperidin-3-yl)-1-oxoisoindolin-4-yl)amino)piperidin-1-yl)propyl 4-(4-((3-benzyl-9-methyl-4H,6H-thieno[2,3-e][1,2,4]triazolo[3,4-c][1,4]oxazepin-2-yl)ethynyl)-1H-pyrazol-1-yl)butanoate]: the concentration for half-maximal inhibition (IC50) in the assay with MOLM13 (Homo sapiens, MOLM-13, 96 h) worked out at 2.4 nM; in the assay with MDA-MB-231 (Homo sapiens, MDA-MB-231, 96 h) it was 7.3 nM.

Turning to `Cc1nnc2n1-c1sc(C#Cc3ccn(CCC(=O)OCCC#Cc4cccc5c4CN(C4CCC(=O)NC4=O)C5=O)n3)c(Cc3ccccc3)c1COC2` (centres unmarked) [compound 28, 4-(2-(2,6-dioxopiperidin-3-yl)-1-oxoisoindolin-4-yl)but-3-yn-1-yl 3-(3-((3-benzyl-9-methyl-4H,6H-thieno[2,3-e][1,2,4]triazolo[3,4-c][1,4]oxazepin-2-yl)ethynyl)-1H-pyrazol-1-yl)propanoate], the IC50 in the assay with MOLM13 (Homo sapiens, MOLM-13, 96 h) is 0.2 nM; in the assay with MDA-MB-231 (Homo sapiens, MDA-MB-231, 96 h), 2 nM.

With `Cc1nnc2n1-c1sc(C#Cc3ccn(CCC(=O)OCCCCc4cccc5c4CN(C4CCC(=O)NC4=O)C5=O)n3)c(Cc3ccccc3)c1COC2` (centres unmarked) [compound 29, 4-(2-(2,6-dioxopiperidin-3-yl)-1-oxoisoindolin-4-yl)butyl 3-(3-((3-benzyl-9-methyl-4H,6H-thieno[2,3-e][1,2,4]triazolo[3,4-c][1,4]oxazepin-2-yl)ethynyl)-1H-pyrazol-1-yl)propanoate], the IC50 in the assay on MOLM13 (Homo sapiens, MOLM-13, 96 h) is 0.3 nM; in the assay with MDA-MB-231 (Homo sapiens, MDA-MB-231, 96 h), 9.8 nM.

For the compound `Cc1nnc2n1-c1sc(C#Cc3ccn(CCC(=O)OCCCNc4cccc5c4CN(C4CCC(=O)NC4=O)C5=O)n3)c(Cc3ccccc3)c1COC2` (centres unmarked) [compound 30, 3-((2-(2,6-dioxopiperidin-3-yl)-1-oxoisoindolin-4-yl)amino)propyl 3-(3-((3-benzyl-9-methyl-4H,6H-thieno[2,3-e][1,2,4]triazolo[3,4-c][1,4]oxazepin-2-yl)ethynyl)-1H-pyrazol-1-yl)propanoate], the 50% inhibitory concentration (IC50) with MOLM13 (Homo sapiens, MOLM-13, 96 h) was 0.6 nM; in the assay with MDA-MB-231 (Homo sapiens, MDA-MB-231, 96 h), 148 nM.

For the compound `Cc1nnc2n1-c1sc(C#Cc3cnn(CCOC(=O)CCC#Cc4cccc5c4CN(C4CCC(=O)NC4=O)C5=O)c3)c(Cc3ccccc3)c1COC2` (centres unmarked) [compound 31, 2-(4-((3-benzyl-9-methyl-4H,6H-thieno[2,3-e][1,2,4]triazolo[3,4-c][1,4]oxazepin-2-yl)ethynyl)-1H-pyrazol-1-yl)ethyl 5-(2-(2,6-dioxopiperidin-3-yl)-1-oxoisoindolin-4-yl)pent-4-ynoate], the IC50 in the assay on MOLM13 (Homo sapiens, MOLM-13, 96 h) was 1.3 nM; with MDA-MB-231 it was 9.1 nM and 5.6 nM.
